Measurements: patent publication US12441725B2, “ISO-citrate dehydrogenase (IDH) inhibitor” (ZHEJIANG METON PHARMACEUTICAL CO., LTD, priority 2019, dated 2025)

Columns and labels:
[1] = biological target: T1, IDH (endogenous IDH1 R132C) in HT1080 cell (Homo sapiens, UniProt O75874, R132C); assay: Cell-based assay for IDH inhibition (decrease of D-2-HG) in HT1080 cells; details: human fibrosarcoma cell line HT1080, 16 hours treatment, D-2-HG by LC-MS, in triplet
T1 construct: which harbor endogenous heterozygous IDH1 R132C and R132H mutation respectively and accumulate D-2-HG
Description: The present disclosure also provides a cell-based method for assaying IDH inhibition and selectivity of the compounds in human fibrosarcoma cell line HT1080 and cholangiocarcinoma cell line HCCC 9810, which harbor endogenous heterozygous IDH1 R132C and R132H mutation respectively and accumulate D-2-HG. Tumor -derived IDH mutant lost its normal activity of producing α-KG, and gained a new activity of producing D-2-HG. D-2-HG is a metabolite specifically elevated in tumor cells expressing mutant IDH1 or IDH2 proteins. When treating such mutant IDH-expressing tumor cells with an effective IDH inhibitor, the synthesis of D-2-HG is blocked, and D-2-HG concentration is decreased by the oxidation reaction catalyzed by the endogenous D-2-HG dehydrogenase.
To perform a cell-based IDH inhibition assay, HT1080 and HCCC 9810 cells (or other cell lines harboring different IDH mutations) are cultured in DMEM supplemented with 10% FBS. The cells are treated with compounds of present disclosure at various different concentrations. 16 hours after the treatment, culture medium supernatants are removed and cell metabolites are extracted by 40% methanol and 40% acetonitrile in water (pre-chilled under −80° C.) at 4° C. for 1 hour. The extract supernatants are collected and cell debris are removed via high speed centrifugation. The resulting metabolite extracts are analyzed on an Agilent LC-MS system (model: 1290-6470) for 2-HG and glutamate concentration. A HILIC-Z column (2.1 mm×100 mm, […]) is employed on HPLC. Mobile phase A is 15 mM CH3COONH4 and 0.3% NH3·H2O in water. Mobile phase B is 15 mM CH3COONH4 and 0.3% NH3·H2O in 90% MeCN/10% H2O solvent. An 19% solvent A and 81% solvent B isocratic gradient method is used at a flow rate of 0.3 ml/min. D-2-HG is ionized under negative ion spray mode and detected through the multiple-reaction monitoring of a mass transition pair at m/z=147.0/128.9 and 147.0/85.1. Glutamate is ionized under ion spray mode and detected on negative polarity multiple-reaction monitoring of a mass transition pair at m/z=146/102 and 146/128 and its level is used to normalize 2-HG concentration. The activity of cellular mutant IDH proteins in the presence of each test compound at different concentrations can be represented by relative D-2-HG concentration to negative control samples (i.e., cells are treated with DMSO only), and the IC50 value could be determined to evaluate the inhibition and selectivity of each test compound on the IDH enzymatic activity.
The IDH inhibition activity of the compounds were assessed in human fibrosarcoma cell line HIT1080 according to Test 3 of the Biological Assay section. The test for IDH inhibition of each compound was carried out in triplet. As used in Table 6, “A” refers to an IDH inhibitory activity with an IC50<0.1 μM; “B” refers to an IDH inhibitory activity with an IC50 from 0.1 μM to 0.5 μM; “C” refers to an IDH inhibitory activity with an IC50 from 0.5 μM to 1 μM; “D” refers to an IDH inhibitory activity with an IC50>1 μM.

[2] = biological target: T2, IDH1 R132C (Homo sapiens, UniProt O75874, R132C); assay: Biochemical assay for IDH inhibition (NADPH fluorescence), mutant IDH1 R132C; details: 25 nM IDH1-R132C, 1 hour pre-incubation, in triplet
T2 construct: 6xHis
Description: (§1) The present disclosure provides a biochemical assay method for detecting the IDH inhibition and selectivity of the compounds by detecting IDH enzyme activity directly.
(§2) Wild-type IDH enzymes convert NADP^+ to NADPH when catalyzing the α-KG producing reaction. Mutant IDH enzymes convert NADPH to NADP^+ when catalyzing the D-2-HG producing reaction. So, the activity of wild-type and mutant IDH1/2 could be measured by monitoring NADPH level change as NADPH is fluorescent (Excitation 340 nm, Emission 460 nm). By monitoring the change of NADPH level in the reaction, the enzyme activity could be determined rapidly and efficiently and IC50 of a compound could also be assayed.
(§3) The test compounds are prepared into 50 mM stock solutions in DMSO and stored at −20° C. Each test compound stock is further diluted to obtain a 100× stock solution at a concentration of 400 μM, 200 μM, 100 μM, 50 μM, 25 μM, 12.5 μM, 6.25 μM and 3.125 μM, respectively, for the final use on the day of test (the concentration range of 100× stock solutions might be adjusted to cover the estimated IC50 of a specific test compound).
(§4) Inhibition of Mutant IDH1 (R132H or R132C):
(§5) To assay the enzymatic activity of mutant IDH1 proteins, 25 nM IDH1-R132C or 50 nM IDH1-R132H protein solutions are prepared in 20 mM Tris-HCl pH7.5, 150 mM NaCl, 10 mM MgCl2, 1 mM DTT, 0.05 mg/ml BSA and 1.33 mM α-KG. 148 μL 25 nM IDH1-R132C or 50 nM IDH1-R132H protein solutions are mixed with 2 μL DMSO (vehicle control for test compounds) or an above-mentioned 100× stock solution of a test compound and incubated for 1 hour at room temperature. Extra reactions containing 148 μL no-enzyme solution (20 mM Tris-HCl pH7.5, 150 mM NaCl, 10 mM MgCl2, 1 mM DTT, 0.05 mg/ml BSA and 1.33 mM α-KG) and 2 μL DMSO are also set up as background controls. Then each reaction is initiated by adding 50 μL 80 μM NADPH solution prepared in 20 mM Tris-HCl pH7.5, 150 mM NaCl, 10 mM MgCl2, 1 mM DTT and 0.05 mg/ml BSA. BioTek Synergy H1 Microplate reader (BioTek Instruments Inc., Winooski, U.S.) is employed to monitor the NADPH fluorescence (Excitation 340 nm, Emission 460 nm) every 42 seconds for 15 minutes. NADPH change rate is determined according to the linear phase of the fluorescence-time curve and results from the background control reactions are used as background subtraction to calculate the net NADPH change rates of other reactions. The net NADPH change rates from the vehicle control reactions are used as 100% enzymatic activity and thus the relative enzymatic activity of reactions with test compounds added could be determined. Then a dose-response curve is drawn for each test compound and the corresponding IC50 is calculated. The IC50 value is used to evaluate the inhibition and selectivity of each test compound on the IDH enzymatic activity.
(§6) The IDH inhibition activity of the compounds were assessed according to Test 2 of the Biological Assay section. The test for mutant IDH1 R132H and IDH1 R132C inhibition of each compound was carried out in triplet. As used in Table 5, “A” refers to an inhibitory activity against IDH1 R132H or IDH1 R132C with an IC50<0.1 μM; “B” refers to an inhibitory activity against IDH1 R132H or IDH1 R132C with an IC50 from 0.1 μM to 0.5 μM; “C” refers to an inhibitory activity against IDH1 R132H or IDH1 R132C with an IC50 from 0.5 μM to 1 μM; “D” refers to an inhibitory activity against IDH1 R132H or IDH1 R132C with an IC50>1 μM.

[3] = biological target: T3, IDH1 R132H (Homo sapiens, UniProt O75874, R132H); assay: Biochemical assay for IDH inhibition (NADPH fluorescence), mutant IDH1 R132H; details: 50 nM IDH1-R132H, 1 hour pre-incubation, in triplet
T3 construct: 6xHis
Description: as §1, §2, §3, §4, §5, §6

T1 sequence (O75874 2-414 R132C): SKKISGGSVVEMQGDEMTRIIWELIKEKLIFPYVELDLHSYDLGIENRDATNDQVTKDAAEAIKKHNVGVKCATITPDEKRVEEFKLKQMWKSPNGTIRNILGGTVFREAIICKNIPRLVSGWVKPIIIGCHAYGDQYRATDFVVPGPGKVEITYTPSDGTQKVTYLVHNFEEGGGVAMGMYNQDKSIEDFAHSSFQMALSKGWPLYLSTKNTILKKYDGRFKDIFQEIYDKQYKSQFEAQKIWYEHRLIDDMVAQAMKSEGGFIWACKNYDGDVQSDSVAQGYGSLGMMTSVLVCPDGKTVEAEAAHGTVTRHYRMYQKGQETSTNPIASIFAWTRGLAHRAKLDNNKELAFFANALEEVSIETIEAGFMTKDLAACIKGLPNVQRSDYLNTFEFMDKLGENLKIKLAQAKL
T3 sequence (O75874 whole entry R132H): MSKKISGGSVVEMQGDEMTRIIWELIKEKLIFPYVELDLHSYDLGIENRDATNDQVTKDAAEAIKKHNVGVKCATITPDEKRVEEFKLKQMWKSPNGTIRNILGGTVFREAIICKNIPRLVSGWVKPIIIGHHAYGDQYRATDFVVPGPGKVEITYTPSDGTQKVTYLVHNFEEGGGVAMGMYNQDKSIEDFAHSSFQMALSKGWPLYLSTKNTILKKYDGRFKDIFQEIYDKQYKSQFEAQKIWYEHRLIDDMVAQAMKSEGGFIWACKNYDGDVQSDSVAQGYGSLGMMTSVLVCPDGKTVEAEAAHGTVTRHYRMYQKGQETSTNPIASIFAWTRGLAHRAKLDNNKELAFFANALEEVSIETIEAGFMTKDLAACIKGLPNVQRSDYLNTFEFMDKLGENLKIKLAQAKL
T2 sequence (O75874 whole entry R132C): as the sequence (O75874 whole entry R132H) above, with H132C counted along it

Row | SMILES | IC50 [1] | IC50 [2] | IC50 [3]
1 | CCN1Cc2c(ccnc2N[C@@H](C)c2ccc(N(C)c3ccccc3)c(F)c2)C1=O [Compound 31, (S)-2-ethyl-4-((1-(3-fluoro-4-(methyl(phenyl)amino)phenyl)ethyl)amino)-2,3-dihydro-1H-pyrrolo[3,4-c]pyridin-1-one] | > 1000 nM | > 1000 nM | > 1000 nM
2 | CCN1Cc2c(ccnc2N[C@@H](C)c2ccc(Nc3ccccc3)c(F)c2)C1=O [Compound 32, (S)-2-ethyl-4-((1-(3-fluoro-4-(phenylamino)phenyl)ethyl)amino)-2,3-dihydro-1H-pyrrolo[3,4-c]pyridin-1-one] | > 1000 nM | > 1000 nM | > 1000 nM
3 | CCN1Cc2c(ccnc2N[C@@H](C)c2ccc(-c3ccc(C(F)(F)F)cc3)c(F)c2)C1=O [Compound 33, (S)-2-ethyl-4-((1-(2-fluoro-4′-(trifluoromethyl)-[1,1′-biphenyl]-4-yl)ethyl)amino)-2,3-dihydro-1H-pyrrolo[3,4-c]pyridin-1-one] | > 1000 nM | > 1000 nM | 500 to 1000 nM
4 | CCN1Cc2c(ccnc2N[C@@H](C)c2ccc(-c3ccnc(C(F)(F)F)c3)c(F)c2)C1=O [Compound 34, (S)-2-ethyl-4-((1-(3-fluoro-4-(2-(trifluoromethyl)pyridin-4-yl)phenyl)ethyl)amino)-2,3-dihydro-1H-pyrrolo[3,4-c]pyridin-1-one] | > 1000 nM | > 1000 nM | > 1000 nM
5 | CCN1Cc2c(ccnc2N[C@@H](C)c2ccc(C3=CCN(C(C)(C)C)CC3)c(F)c2)C1=O [Compound 35, (S)-4-((1-(4-(1-(tert-butyl)-1,2,3,6-tetrahydropyridin-4-yl)-3-fluorophenyl)ethyl)amino)-2-ethyl-2,3-dihydro-1H-pyrrolo[3,4-c]pyridin-1-one] | > 1000 nM | > 1000 nM | > 1000 nM
6 | CCN1Cc2c(ccnc2N[C@@H](C)c2ccc(C3CCN(C(C)(C)C)CC3)c(F)c2)C1=O [Compound 36, (S)-4-((1-(4-(1-(tert-butyl)piperidin-4-yl)-3-fluorophenyl)ethyl)amino)-2-ethyl-2,3-dihydro-1H-pyrrolo[3,4-c]pyridin-1-one] | > 1000 nM | > 1000 nM | > 1000 nM

Continued, values first:

Row | IC50 [1] | IC50 [2] | IC50 [3] | SMILES
7 | > 1000 nM | > 1000 nM | > 1000 nM | CCN1Cc2c(ccnc2N[C@@H](C)c2ccc(Oc3ccnc(C(F)(F)F)c3)c(F)c2)C1=O [Compound 26, (S)-2-ethyl-4-((1-(3-fluoro-4-((2-(trifluoromethyl)pyridin-4-yl)oxy)phenyl)ethyl)amino)-2,3-dihydro-1H-pyrrolo[3,4-c]pyridin-1-one]
8 | > 1000 nM | > 1000 nM | > 1000 nM | CCN1Cc2c(ccnc2N[C@@H](C)c2ccc(OC3CCC(F)(F)C3)c(F)c2)C1=O (stereo partly drawn) [Compound 27, 4-(((1S)-1-(4-((3,3-difluorocyclopentyl)oxy)-3-fluorophenyl)ethyl)amino)-2-ethyl-2,3-dihydro-1H-pyrrolo[3,4-c]pyridin-1-one]
9 | > 1000 nM | > 1000 nM | > 1000 nM | CCN1Cc2c(ccnc2N[C@@H](C)c2ccc(OCC3CNC3)c(F)c2)C1=O [Compound 28, (S)-4-((1-(4-(azetidin-3-ylmethoxy)-3-fluorophenyl)ethyl)amino)-2-ethyl-2,3-dihydro-1H-pyrrolo[3,4-c]pyridin-1-one]
10 | > 1000 nM | 500 to 1000 nM | 100 to 500 nM | CCN1Cc2c(ccnc2N[C@@H](C)c2ccc(Oc3ccc4c(c3)CCN4C)c(F)c2)C1=O [Compound 29, (S)-2-ethyl-4-((1-(3-fluoro-4-((1-methylindolin-5-yl)oxy)phenyl)ethyl)amino)-2,3-dihydro-1H-pyrrolo[3,4-c]pyridin-1-one]
11 | > 1000 nM | > 1000 nM | 500 to 1000 nM | CCN1Cc2c(ccnc2N[C@@H](C)c2ccc(Oc3ccnc4ccccc34)c(F)c2)C1=O [Compound 30, (S)-2-ethyl-4-((1-(3-fluoro-4-(quinolin-4-yloxy)phenyl)ethyl)amino)-2,3-dihydro-1H-pyrrolo[3,4-c]pyridin-1-one]
